From PubChem BioAssay (NCI)
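Cultured in 96-well plates, cells were exposed to test compound for 48 hours across five concentrations. The concentration for full growth arrest is given as TGI.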

Tests used:
Assay in all cases: NCI anticancer screen, dose series, 48 h
T-47D breast = test system: T-47D breast
OVCAR-5 ovarian = test system: OVCAR-5 ovarian
EKVX NSCLC = test system: EKVX NSCLC
UACC-257 melanoma = test system: UACC-257 melanoma
COLO 205 colon = test system: COLO 205 colon
SF-295 CNS = test system: SF-295 CNS
SN12C renal = test system: SN12C renal
OVCAR-3 ovarian = test system: OVCAR-3 ovarian
DU-145 prostate = test system: DU-145 prostate
UO-31 renal = test system: UO-31 renal
HL-60(TB) leukemia = test system: HL-60(TB) leukemia
RPMI-8226 leukemia = test system: RPMI-8226 leukemia
UACC-62 melanoma = test system: UACC-62 melanoma
SW-620 colon = test system: SW-620 colon
LOX IMVI melanoma = test system: LOX IMVI melanoma
MOLT-4 leukemia = test system: MOLT-4 leukemia
SF-268 CNS = test system: SF-268 CNS
HOP-92 NSCLC = test system: HOP-92 NSCLC
SK-OV-3 ovarian = test system: SK-OV-3 ovarian
SR leukemia = test system: SR leukemia
MDA-MB-231 breast = test system: MDA-MB-231 breast
A498 renal = test system: A498 renal
A549 NSCLC = test system: A549 NSCLC
M14 melanoma = test system: M14 melanoma
SNB-19 CNS = test system: SNB-19 CNS
SK-MEL-5 melanoma = test system: SK-MEL-5 melanoma
MALME-3M melanoma = test system: MALME-3M melanoma
MCF7 breast = test system: MCF7 breast
OVCAR-8 ovarian = test system: OVCAR-8 ovarian
HS 578T breast = test system: HS 578T breast
BT-549 breast = test system: BT-549 breast
SK-MEL-28 melanoma = test system: SK-MEL-28 melanoma
CCRF-CEM leukemia = test system: CCRF-CEM leukemia
HCT-116 colon = test system: HCT-116 colon
NCI-H23 lung = test system: NCI-H23 lung
HCC-2998 colon = test system: HCC-2998 colon
TK-10 renal = test system: TK-10 renal
K-562 leukemia = test system: K-562 leukemia
MDA-N = test system: MDA-N
CAKI-1 renal = test system: CAKI-1 renal
KM12 colon = test system: KM12 colon
SK-MEL-2 melanoma = test system: SK-MEL-2 melanoma
HOP-62 NSCLC = test system: HOP-62 NSCLC
SNB-75 CNS = test system: SNB-75 CNS
MDA-MB-435 = test system: MDA-MB-435
NCI-H226 lung = test system: NCI-H226 lung
ACHN renal = test system: ACHN renal
HCT-15 colon = test system: HCT-15 colon
RXF 393 renal = test system: RXF 393 renal
NCI-H460 lung = test system: NCI-H460 lung
HT29 colon = test system: HT29 colon
786-0 renal = test system: 786-0 renal
NCI-H522 lung = test system: NCI-H522 lung
OVCAR-4 ovarian = test system: OVCAR-4 ovarian
SF-539 CNS = test system: SF-539 CNS
IGROV1 ovarian = test system: IGROV1 ovarian
NCI/ADR-RES ovarian = test system: NCI/ADR-RES ovarian
PC-3 prostate = test system: PC-3 prostate
U251 CNS = test system: U251 CNS

Which results are given for `O=C1c2ccccc2C(=O)c2c1oc(=O)c1ccccc21`?
TGI (T-47D breast): 13.9 µM; TGI (OVCAR-5 ovarian): 14.4 µM; TGI (EKVX NSCLC): 14.3 µM; TGI (UACC-257 melanoma): 6.75 µM; TGI (COLO 205 colon): 24.7 µM; TGI (SF-295 CNS): 7.41 µM; TGI (SN12C renal): 7.91 µM; TGI (OVCAR-3 ovarian): 3.61 µM; TGI (DU-145 prostate): 14 µM; TGI (UO-31 renal): 11.4 µM; TGI (HL-60(TB) leukemia): 1.71 µM; TGI (RPMI-8226 leukemia): 19.2 µM; TGI (UACC-62 melanoma): 8.36 µM; TGI (SW-620 colon): > 25 µM; TGI (LOX IMVI melanoma): 9.9 µM; TGI (MOLT-4 leukemia): 12.5 µM; TGI (SF-268 CNS): 19.7 µM; TGI (HOP-92 NSCLC): 11.9 µM; TGI (SK-OV-3 ovarian): > 25 µM; TGI (SR leukemia): 21.3 µM; TGI (MDA-MB-231 breast): 13.8 µM; TGI (A498 renal): > 25 µM; TGI (A549 NSCLC): > 25 µM; TGI (M14 melanoma): 16.1 µM; TGI (SNB-19 CNS): > 25 µM; TGI (SK-MEL-5 melanoma): 4.51 µM; TGI (MALME-3M melanoma): 5.79 µM; TGI (MCF7 breast): 13.6 µM; TGI (OVCAR-8 ovarian): 15.1 µM; TGI (HS 578T breast): 23.2 µM; TGI (BT-549 breast): 9.2 µM; TGI (SK-MEL-28 melanoma): 17 µM; TGI (CCRF-CEM leukemia): 16 µM; TGI (HCT-116 colon): 4.27 µM; TGI (NCI-H23 lung): 10.6 µM; TGI (HCC-2998 colon): 6.96 µM; TGI (TK-10 renal): 18.9 µM; TGI (K-562 leukemia): 17.9 µM; TGI (MDA-N): 5.7 µM; TGI (CAKI-1 renal): 15.5 µM; TGI (KM12 colon): 12.8 µM; TGI (SK-MEL-2 melanoma): 10.1 µM; TGI (HOP-62 NSCLC): 24.6 µM; TGI (SNB-75 CNS): 12.3 µM; TGI (MDA-MB-435): 3.61 µM; TGI (NCI-H226 lung): 21.2 µM; TGI (ACHN renal): 11.1 µM; TGI (HCT-15 colon): 7.5 µM; TGI (RXF 393 renal): 9.62 µM; TGI (NCI-H460 lung): 10.9 µM; TGI (HT29 colon): 13 µM; TGI (786-0 renal): 14 µM; TGI (NCI-H522 lung): 9.73 µM; TGI (OVCAR-4 ovarian): 3.56 µM; TGI (SF-539 CNS): > 25 µM; TGI (IGROV1 ovarian): 10.4 µM; TGI (NCI/ADR-RES ovarian): 10.2 µM; TGI (PC-3 prostate): 19.2 µM; TGI (U251 CNS): 12.2 µM

For `COc1ccc(C(=O)Cn2c(C(C)=O)nc3ccccc32)cc1`, which TGI (T-47D breast) is on record?
The TGI was greater than 78.7 µM.

What about the TGI (OVCAR-5 ovarian) of the same molecule?
The TGI was greater than 100 µM.

And the TGI (EKVX NSCLC)?
The TGI was greater than 100 µM.

What about the TGI (UACC-257 melanoma) of the same molecule?
Its TGI is greater than 100 µM.

And the TGI (COLO 205 colon)?
Its TGI is 52.4 µM.

What about the TGI (SF-295 CNS) of the same molecule?
The TGI was 80.6 µM.

And the TGI (SN12C renal)?
Its TGI is greater than 100 µM.

What about the TGI (OVCAR-3 ovarian) of the same molecule?
Its TGI is greater than 100 µM.

And the TGI (DU-145 prostate)?
The TGI was greater than 100 µM.

What about the TGI (UO-31 renal) of the same molecule?
The TGI was greater than 57.3 µM.

And the TGI (HL-60(TB) leukemia)?
The TGI was greater than 43.8 µM.

And the TGI (RPMI-8226 leukemia)?
Its TGI is greater than 100 µM.

What about the TGI (UACC-62 melanoma) of the same molecule?
The TGI was greater than 92.9 µM.

What about the TGI (SW-620 colon) of the same molecule?
Its TGI is greater than 100 µM.

What about the TGI (LOX IMVI melanoma) of the same molecule?
Its TGI is greater than 46.4 µM.

And the TGI (MOLT-4 leukemia)?
The TGI was greater than 100 µM.

And the TGI (SF-268 CNS)?
The TGI was greater than 100 µM.

And the TGI (HOP-92 NSCLC)?
Its TGI is greater than 100 µM.

What about the TGI (SK-OV-3 ovarian) of the same molecule?
Its TGI is greater than 100 µM.

What about the TGI (SR leukemia) of the same molecule?
Its TGI is greater than 100 µM.

What about the TGI (MDA-MB-231 breast) of the same molecule?
Its TGI is greater than 100 µM.

And the TGI (A498 renal)?
The TGI was greater than 100 µM.

What about the TGI (A549 NSCLC) of the same molecule?
The TGI was greater than 100 µM.

What about the TGI (M14 melanoma) of the same molecule?
Its TGI is greater than 100 µM.

And the TGI (SNB-19 CNS)?
Its TGI is greater than 100 µM.

And the TGI (SK-MEL-5 melanoma)?
Its TGI is greater than 100 µM.

What about the TGI (MALME-3M melanoma) of the same molecule?
Its TGI is greater than 100 µM.

And the TGI (MCF7 breast)?
The TGI was greater than 100 µM.

And the TGI (OVCAR-8 ovarian)?
Its TGI is greater than 44.5 µM.

What about the TGI (HS 578T breast) of the same molecule?
The TGI was greater than 100 µM.

What about the TGI (BT-549 breast) of the same molecule?
Its TGI is greater than 100 µM.

What about the TGI (SK-MEL-28 melanoma) of the same molecule?
The TGI was greater than 100 µM.

And the TGI (CCRF-CEM leukemia)?
Its TGI is greater than 100 µM.

And the TGI (HCT-116 colon)?
Its TGI is greater than 100 µM.

And the TGI (NCI-H23 lung)?
Its TGI is greater than 100 µM.

And the TGI (HCC-2998 colon)?
Its TGI is greater than 100 µM.

And the TGI (TK-10 renal)?
The TGI was greater than 100 µM.

And the TGI (K-562 leukemia)?
The TGI was greater than 100 µM.

And the TGI (MDA-N)?
Its TGI is greater than 100 µM.

And the TGI (CAKI-1 renal)?
Its TGI is greater than 100 µM.

And the TGI (KM12 colon)?
Its TGI is greater than 100 µM.

What about the TGI (SK-MEL-2 melanoma) of the same molecule?
The TGI was greater than 100 µM.

And the TGI (HOP-62 NSCLC)?
Its TGI is 65.7 µM.

What about the TGI (SNB-75 CNS) of the same molecule?
The TGI was greater than 100 µM.

What about the TGI (MDA-MB-435) of the same molecule?
Its TGI is greater than 100 µM.

And the TGI (NCI-H226 lung)?
The TGI was greater than 100 µM.

What about the TGI (ACHN renal) of the same molecule?
The TGI was greater than 100 µM.

And the TGI (HCT-15 colon)?
The TGI was greater than 100 µM.

And the TGI (RXF 393 renal)?
Its TGI is greater than 100 µM.

What about the TGI (NCI-H460 lung) of the same molecule?
The TGI was greater than 61.7 µM.

And the TGI (HT29 colon)?
Its TGI is greater than 100 µM.

What about the TGI (786-0 renal) of the same molecule?
Its TGI is 33.7 µM.

What about the TGI (NCI-H522 lung) of the same molecule?
The TGI was greater than 100 µM.

What about the TGI (OVCAR-4 ovarian) of the same molecule?
Its TGI is greater than 100 µM.

And the TGI (SF-539 CNS)?
Its TGI is greater than 100 µM.

And the TGI (IGROV1 ovarian)?
Its TGI is greater than 100 µM.

What about the TGI (NCI/ADR-RES ovarian) of the same molecule?
The TGI was greater than 100 µM.

And the TGI (PC-3 prostate)?
The TGI was greater than 100 µM.

What about the TGI (U251 CNS) of the same molecule?
The TGI was 31.8 µM.
